Values joined by “and” are separate entries in the source; they are usually repeats but may differ in a detail not shown here. Equal values may be shown once.

In one series the target is T1, Amine oxidase [flavin-containing] B (Homo sapiens, UniProt P27338).
T1 sequence (P27338 whole entry): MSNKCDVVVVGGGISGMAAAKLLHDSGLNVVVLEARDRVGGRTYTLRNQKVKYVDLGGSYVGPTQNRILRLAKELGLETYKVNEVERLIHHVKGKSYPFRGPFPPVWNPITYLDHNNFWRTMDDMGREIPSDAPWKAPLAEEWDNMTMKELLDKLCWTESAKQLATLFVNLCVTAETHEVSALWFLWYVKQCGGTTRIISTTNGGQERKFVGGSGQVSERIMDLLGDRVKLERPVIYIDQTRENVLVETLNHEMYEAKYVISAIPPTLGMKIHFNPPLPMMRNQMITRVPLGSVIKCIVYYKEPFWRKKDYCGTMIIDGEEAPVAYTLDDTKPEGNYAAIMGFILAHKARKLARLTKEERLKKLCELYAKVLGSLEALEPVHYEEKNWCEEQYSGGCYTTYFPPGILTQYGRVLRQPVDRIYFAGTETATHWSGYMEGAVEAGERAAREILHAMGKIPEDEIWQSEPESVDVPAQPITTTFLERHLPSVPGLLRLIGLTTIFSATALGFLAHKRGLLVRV
Nature of the series: Inhibition of MAO-B (unknown origin).
Conditions: not given
Turning to `NS(=O)(=O)Cc1noc2ccccc12` [ZONISAMIDE], the Ki came to 30.8 µM.

The series is the same for the next values; noted with them: read-out: IC50.
As for `COc1ccc(/C(=C\F)CN)cc1OC`, the IC50 worked out at 0.01 µM.

Still in this series, the particulars now being: read-out: pIC50 (converted).
In the case of `O=c1oc2ccc(Cl)cc2cc1Cl`, the IC50 is 0.01 µM.

For `C/C(=C\COc1ccc2ccc(=O)oc2c1)C1=CC(=O)C(C)(C)O1` [GEIPARVARIN], the IC50 was 24 µM.

The next series addresses T2, Amine oxidase [flavin-containing] A (Homo sapiens, UniProt P21397).
T2 sequence (P21397 whole entry): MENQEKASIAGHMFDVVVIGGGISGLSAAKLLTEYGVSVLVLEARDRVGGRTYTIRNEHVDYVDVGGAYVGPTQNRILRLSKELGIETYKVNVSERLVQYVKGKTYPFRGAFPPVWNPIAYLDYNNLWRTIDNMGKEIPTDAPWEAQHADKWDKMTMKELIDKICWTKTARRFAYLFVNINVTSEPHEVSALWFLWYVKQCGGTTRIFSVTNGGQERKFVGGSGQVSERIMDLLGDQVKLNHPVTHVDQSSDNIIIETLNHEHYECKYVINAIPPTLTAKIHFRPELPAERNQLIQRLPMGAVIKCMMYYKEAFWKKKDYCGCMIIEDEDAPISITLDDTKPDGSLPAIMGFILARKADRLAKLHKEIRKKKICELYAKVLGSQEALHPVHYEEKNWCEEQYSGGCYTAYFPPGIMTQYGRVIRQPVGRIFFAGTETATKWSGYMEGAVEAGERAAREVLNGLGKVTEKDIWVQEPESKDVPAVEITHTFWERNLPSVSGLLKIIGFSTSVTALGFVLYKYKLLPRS
Nature of the series: Irreversible inhibition of human recombinant MAO-A.
Conditions: not given
As to `C#CCN(C)Cc1cccc(C(=O)NC2CC(C)(C)N([O])C(C)(C)C2)c1`, the Ki worked out at 268 µM.

Another series has as its target T1, Amine oxidase [flavin-containing] B. Nature of the series: Irreversible inhibition of human recombinant MAO-B.
Conditions: not given
As for `C#CCN(C)Cc1ccc(C(=O)NC2CC(C)(C)N([O])C(C)(C)C2)cc1`, the Ki is 15 µM.

Another series deals with T2, Amine oxidase [flavin-containing] A. Kind of series: Inhibition of human recombinant MAO-A.
Conditions: not given
Regarding `CC(=O)Nc1ccc2c(c1)S(=O)(=O)c1ccccc1N2C`, the IC50 was 0.01 µM. As for `CC(=O)Nc1ccc2c(c1)C(=O)c1ccccc1C2=O`, the IC50 was 0.01 µM. With `CC(=O)Nc1ccc2c(O)c3ccccc3nc2c1`, the IC50 stood at 0.01 µM. On the same count and under the same terms, the value for `CCc1ccc2c(c1)S(=O)(=O)c1cc(NC(C)=O)ccc1C2=O` was 0.01 µM; that for `CC(=O)Nc1cc2c(cc1NC(C)=O)S(=O)(=O)c1ccccc1C2` was 0.01 µM. On the same count and under the same terms, the value for `CCCc1ccc2c(c1)S(=O)(=O)c1cc(NC(C)=O)ccc1C2=O` was 0.01 µM; that for `CC(=O)Nc1ccc2c(c1)S(=O)(=O)c1ccccc1C2=O` was 0.01 µM; that for `CC(=O)Nc1ccc2c(c1)S(=O)(=O)c1cc(C)ccc1C2=O` was 0.01 µM.

Consider `CC(=O)Nc1ccc2c(c1)S(=O)(=O)c1ccccc1N2`, for which the IC50 was 0.01 µM. Still for that read-out and setting: for `O=CN(C=O)c1ccc2c(c1)S(=O)(=O)c1ccccc1C2=O` the value was 0.01 µM; for `CC(=O)Nc1ccc2c(c1)S(=O)(=O)c1ccccc1O2`, 0.01 µM; for `CC(=O)Nc1ccc2c(c1)C(=O)c1ccccc1S2(=O)=O`, 0.01 µM.

As for `CC(=O)Nc1cccc2c1C(=O)c1ccccc1C2=O`, the IC50 stood at 0.01 µM.

On to `CC(=O)Nc1ccc2c(c1)S(=O)(=O)c1cc(NC(C)=O)ccc1N2C`, for which the IC50 is 0.01 µM.

The target is the same in another series. Kind of series: Inhibition of MAO-A (unknown origin).
Conditions: not given
As for `C#CCN(C)Cc1ccc[nH]1`, the Ki was […]. `C[C@@H]1O[C@@H](Oc2c(-c3ccc(O)c(O)c3)oc3cc(O)cc(O)c3c2=O)[C@H](O)[C@H](O)[C@H]1O` [QUERCITRIN]: the IC50 was determined as 18 µM.

The target is the same in another series. Kind of series: Inhibition of recombinant human MAO-A using kynuramine as substrate incubated for 20 mins by spectrophotometry analysis.
Conditions: not given
Turning to `COC[C@H]1CN(n2cccc2)C(=O)O1`, the Ki is 0.0049 µM.

A further series addresses T1, Amine oxidase [flavin-containing] B. Kind of series: Inhibition of human MAO-B.
Conditions: not given
In turn, `OCCn1nnc(-c2ccc(OCc3cccc(Cl)c3)cc2)n1` registered an IC50 of 0.002 µM. Compound `N#CCCn1nnc(-c2ccc(OCc3cccc(Cl)c3)cc2)n1` had an IC50 of 8 µM. The compound `OCCn1nnc(-c2ccc(OCc3ccccc3)cc2)n1` displayed an IC50 of 0.002 µM.

As for `N#CCCn1nnc(-c2ccc(OCc3ccccc3)cc2)n1`, the IC50 came to 8 µM. Still for that read-out and setting: for `Oc1ccc(/C=C/c2cc(O)cc3c2[C@@H](c2cc(O)cc(O)c2)C(c2ccc(O)cc2)O3)cc1` (stereo not given in full) the value was 5 µM.

In the next series the target is Acetylcholinesterase (Homo sapiens, UniProt P22303). Kind of series: Inhibition of AChE (unknown origin) using acetylthiocholine chloride as substrate incubated for 5 mins by DTNB reagent based Ellman's method.
Sequence of Acetylcholinesterase (P22303 whole entry): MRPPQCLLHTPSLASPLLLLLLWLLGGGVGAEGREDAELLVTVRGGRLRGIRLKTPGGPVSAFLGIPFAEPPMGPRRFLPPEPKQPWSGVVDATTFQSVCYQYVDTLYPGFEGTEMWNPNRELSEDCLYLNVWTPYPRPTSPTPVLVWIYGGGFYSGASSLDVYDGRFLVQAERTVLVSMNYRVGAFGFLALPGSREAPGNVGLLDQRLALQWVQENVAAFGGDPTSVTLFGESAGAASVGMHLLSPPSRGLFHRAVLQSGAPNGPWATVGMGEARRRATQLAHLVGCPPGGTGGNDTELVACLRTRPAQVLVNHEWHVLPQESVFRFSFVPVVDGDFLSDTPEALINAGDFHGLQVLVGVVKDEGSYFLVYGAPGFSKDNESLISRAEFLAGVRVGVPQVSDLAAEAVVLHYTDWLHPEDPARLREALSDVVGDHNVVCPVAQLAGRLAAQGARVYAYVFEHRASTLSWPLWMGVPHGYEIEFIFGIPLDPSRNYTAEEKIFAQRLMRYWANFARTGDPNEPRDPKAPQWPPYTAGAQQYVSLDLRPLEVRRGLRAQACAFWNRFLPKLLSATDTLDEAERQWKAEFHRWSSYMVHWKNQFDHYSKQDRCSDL
Conditions: not given
(In general: DTNB colorimetry detects thiols as they appear.)
`Cc1c(C)c2ccc(OCc3cccc(O)c3)cc2oc1=O` came in with an IC50 of 3 µM. Compound `Cc1ccccc1COc1ccc2c(C)c(C)c(=O)oc2c1` showed an IC50 of 3 µM.

`Cc1c(C)c2ccc(OCc3cc(F)cc(F)c3)cc2oc1=O` returned an IC50 of 3 µM.

`Cc1c(C)c2ccc(OCCc3ccccc3)cc2oc1=O` returned an IC50 of 3 µM. Take `Cc1c(C)c2ccc(OCc3ccccc3)cc2oc1=O`: the IC50 stood at 3 µM. On the same count and under the same terms, for `Cc1c(C)c2ccc(OCc3cccc(N)c3)cc2oc1=O` the value was 3 µM; for `Cc1c(C)c2ccc(OCc3ccc(F)c(F)c3)cc2oc1=O`, 3 µM. On the same count and under the same terms, the value for `Cc1cc(=O)c2cc(Oc3ccccc3)ccc2o1` was 3 µM; that for `O=c1ccoc2ccc(Oc3ccccc3)cc12` was 3 µM.

The target of a further series is T3, Amine oxidase [flavin-containing] A (Rattus norvegicus, UniProt P21396).
T3 sequence (P21396 whole entry): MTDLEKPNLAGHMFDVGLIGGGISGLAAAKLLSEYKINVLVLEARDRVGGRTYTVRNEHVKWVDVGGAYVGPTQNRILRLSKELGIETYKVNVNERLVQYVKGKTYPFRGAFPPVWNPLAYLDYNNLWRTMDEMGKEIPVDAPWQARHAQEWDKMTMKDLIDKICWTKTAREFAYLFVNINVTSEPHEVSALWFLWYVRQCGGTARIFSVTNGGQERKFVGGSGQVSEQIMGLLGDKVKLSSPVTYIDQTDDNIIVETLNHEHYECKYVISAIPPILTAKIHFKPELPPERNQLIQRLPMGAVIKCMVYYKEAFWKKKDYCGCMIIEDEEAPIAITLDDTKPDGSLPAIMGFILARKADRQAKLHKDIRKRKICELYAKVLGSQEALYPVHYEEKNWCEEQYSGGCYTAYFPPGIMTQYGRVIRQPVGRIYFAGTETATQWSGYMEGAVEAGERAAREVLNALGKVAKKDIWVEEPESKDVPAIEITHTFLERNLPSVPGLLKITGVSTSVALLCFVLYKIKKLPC
Kind of series: Inhibition of rat MAO-A.
Conditions: not given
`O=C1C[C@@H](c2ccc(O)cc2)Oc2cc(O)cc(O)c21` [NARINGENIN] had an IC50 of 342 µM.

The target in another series is T2, Amine oxidase [flavin-containing] A. Nature of the series: Inhibition of human MAO-A using tyramine hydrochloride as substrate preincubated for 30 mins followed by substrate addition and measured for 1 hr by microplate reader method.
Conditions: not given
On to `COc1cc(O)cc(O[C@H]2O[C@@H](CO)[C@H](O)[C@H]2O)c1C(=O)c1cc(O)cc(O)c1`, for which the IC50 was 310 µM. Still for that read-out and setting: for `O=C(c1cc(O)cc(O)c1)c1c(O)cc(O)cc1O[C@H]1O[C@@H](CO)[C@H](O)[C@H]1O` the value was 111 µM.

Take `O=C(c1cc(O)cc(O)c1)c1c(O[C@@H]2OC[C@@H](O)[C@H](O)[C@H]2O)cc(O)cc1O[C@H]1O[C@@H](CO)[C@H](O)[C@H]1O`: the IC50 was 726 µM.

Another series shares this target. Nature of the series: Inhibition of MAO-A (unknown origin) incubated for 60 mins by fluorometric spectrophotometry analysis.
Conditions: not given
Consider `O=c1c(O[C@@H]2O[C@H](CO)[C@@H](O)[C@H](O)[C@H]2O)c(-c2ccc(O)c(O)c2)oc2cc(O)cc(O)c12` [ISOQUERCETIN], for which the IC50 was 19.1 µM. Still for that read-out and setting: for `O=c1c(O)c(-c2ccc(O)c(O)c2)oc2cc(O)cc(O)c12` [QUERCETIN] the value was 11.6 µM and 10.9 µM.

Compound `C[C@@H]1O[C@@H](OC[C@H]2O[C@@H](Oc3c(-c4ccc(O)c(O)c4)oc4cc(O)cc(O)c4c3=O)[C@H](O)[C@@H](O)[C@@H]2O)[C@H](O)[C@H](O)[C@H]1O` [RUTIN] gave an IC50 of 3.89 µM.

In another series the target is T3, Amine oxidase [flavin-containing] A. Nature of the series: In vivo inhibition of MAO-A in Wistar rat with assessed as decrease in MAO activity in […] at 10 to 30 mg/kg, ip measured after 2 hrs. The format is functional, organism-based. The arrangement: scale not given: the % may be the effect or the level left. The conditions noted are these: dose 10-30 mg/kg.
With `C[C@]12CC[C@H](O)CC1=CC[C@@H]1[C@@H]2CC[C@]2(C)C(=O)CC[C@@H]12` [PRASTERONE], the Activity was -24%.

Source of the values: ChEMBL document CHEMBL5244208, “Privileged scaffolds as MAO inhibitors: Retrospect and prospects” (Eur J Med Chem, 2018).
